Results on eleven compounds are retold here after article PMC11562385 (RSC Chemical Biology, 2024).

One series concerns the target T1, PD1:PDL1 interaction (Homo sapiens, UniProt Q15116).
T1 construct: purchased BPS Bioscience 72005
As to the kind of experiment: PD1/PDL1 immunoblocking ELISA (BPS Bioscience kit cat # 72005). It counts as binding. Here is the method: Original loops with Phe/Trp and their Gly-derived analogs. Experimental EC50 values from inhibitory dose–response curves. Error bars indicate the mean ± SD, (n = 3). […]
SDS -Pages, buffers, and stain were purchased from Fisher
8. Immunoblocking ELISA Assay
Peptide inhibitor stock solutions were prepared in the concentration range of approximately 1-5 mM in DMSO. […]
plate was then washed and blocked with blocking buffer for 1 h at room temperature. Inhibitor solutions (ranging from 0.01 to 100 μM) and a blank solution (DMSO/PBS buffer) were added to designated wells. To initiate the […]
inhibitor solutions. After a 2 h incubation at room temperature, the plate was washed and blocked again for 10 min. Streptavidin-HRP (diluted at 1 : 1000) was added and incubated for 1 h at room temperature with gentle shaking. The plate was washed and blocked once more for 10 min. ELISA ECL substrate was added, and the resulting chemoluminescence was immediately measured in a luminometer (FLUOstar OPTIMA, BMG Labtech).
The luminescence value of the blank was subtracted from all readings according to the manufacturer's
In general terms: An ELISA detects its analyte on a solid surface through an enzyme-linked reagent.

A short description of series [1]: Variable-temperature CD melting curves (CD-melts at 228±2 nm and 202±2 nm), individual and global two-state fits. It counts as physicochemical. As to the method: Recently, our laboratory brought forward a novel synthetic technology for the synthesis of acyclic β-hairpins with long loops. […] To compare hairpins’ stability, both regular (R) and bulged (B) scaffolds were crafted around a flexible 10-residue model loop (G4K2G4) and analyzed by CD (circular dichroism) spectroscopy (Fig. 2(A), see ESI, ^† Table S5). The […] structure of these model scaffolds 1avs.2a in solution were recorded in the far-UV CD spectra. […] The CD-exciton intensity was therefore used as a global probe to determine the %-folding of ADAPTins and to obtain melting curves corresponding to the hairpin fraying mechanism upon a gradual increase of temperature (0 to 95 °C).[68] […] In addition, NMR (nuclear magnetic resonance) chemical shifts were measured to determine variations in backbone […] structures (Fig. 2(B)). Secondary chemical shift deviations (CSDs) were calculated against random coil values[69] for both ADAPTin scaffolds 1vs.2 to verify that the hairpins were folded and if any variation of conformational rigidity exist within the loops. […]
Mass Spectrometer coupled to a Vanquish™ Neo UHPLC System (Thermo Scientific™). Peptide solutions for circular dichroism (CD) were prepared within a concentration range of 15-120 µM in a phosphate buffer (15 mM, […]
measured accurately using a JASCO V-670 spectrophotometer relied on the combined molar absorptivity of Trp (ε280 = 5580 M-1 .cm-1 per Trp) and Tyr (ε280 = 1280 M-1 .cm-1 per Tyr) to determine each sample's concentration.
CD spectra were recorded using a JASCO J-810 Spectropolarimeter equipped with a temperature controller module JASCO PFD-425S. Raw CD melting curves were processed in SpectraGryph, and fitting was performed in OriginPro 9.0 (Originlab Corporation, U.S.A.). NMR samples were prepared by reconstituting freeze -dried peptides (~ 1-5 mg) in mixture of water and DMSO -d6 (90:10 v/v) using 2,2-dimethyl-2-silapentane-5-sulfonate (DSS) as internal standard for chemical shifts (0 ppm), and spectra were recorded at 291 K (18 °C) unless otherwise stated. Chemical shifts ( δ) are reported in ppm. Samples for NMR experiments were prepared in a range of 3-10 mM of peptide in solution unless otherwise noted.

[2] abbreviates: ELISA, mean of three independent experiments, read-out: EC50 Value.
[3] abbreviates: xlsx sheet of the peptide, individual fit of CD-melt.

Like-named read-outs stand apart in the source and are kept apart here. Square brackets hold non-standard residues; d marks the D form. Peptide text beside a SMILES is read from it. * marks the point of attachment. Dab = NCC[C@H](N)C(=O)O; Dap = NC[C@H](N)C(=O)O; Acryloyl = C=CC(=O)*

T1 sequence (Q15116 25-167 limits assumed): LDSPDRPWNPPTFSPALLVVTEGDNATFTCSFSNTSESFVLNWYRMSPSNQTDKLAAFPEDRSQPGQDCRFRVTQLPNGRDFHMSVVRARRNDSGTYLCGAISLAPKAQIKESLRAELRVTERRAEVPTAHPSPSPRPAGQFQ

Turning to `CC(C)C[C@H](NC(=O)[C@H](CCC(N)=O)NC(=O)[C@H](CCCNC(=N)N)NC(=O)[C@H](C)NC(=O)[C@@H](NC(=O)[C@H](Cc1c[nH]c2ccccc12)NC(=O)[C@@H](N)CCCNC(=N)N)C(C)C)C(=O)N[C@@H](Cc1ccc(O)cc1)C(=O)N[C@@H](Cc1ccc(O)cc1)C(=O)N[C@@H](Cc1ccccc1)C(=O)N[C@@H](CC(=O)O)C(=O)N[C@@H](Cc1ccc(O)cc1)C(=O)N[C@@H](Cc1c[nH]c2ccccc12)C(=O)N[C@H](C(=O)N[C@@H](Cc1c[nH]c2ccccc12)C(=O)N[C@@H](CCC(=O)O)C(=O)O)C(C)C` [2m] (H-RWVARQLYYFDYWVWE-OH), the EC50 on PD1:PDL1 interaction (setting [2]) is 144 nM. `CSCC[C@H](NC(=O)[C@H](CC(=O)O)NC(=O)CNC(=O)[C@H](CCCNC(=N)N)NC(=O)[C@H](Cc1ccc(O)cc1)NC(=O)[C@H](CC(=O)O)NC(=O)[C@H](CCCNC(=N)N)NC(=O)[C@H](CCCNC(=N)N)NC(=O)[C@@H](NC(=O)[C@@H](NC(=O)[C@H](Cc1c[nH]c2ccccc12)NC(=O)[C@@H](N)CCCNC(=N)N)C(C)C)C(C)C)C(=O)NCC(=O)N[C@@H](Cc1ccccc1)C(=O)N[C@@H](CC(=O)O)C(=O)N[C@@H](Cc1ccc(O)cc1)C(=O)N[C@@H](Cc1c[nH]c2ccccc12)C(=O)N[C@H](C(=O)N[C@@H](Cc1c[nH]c2ccccc12)C(=O)N[C@@H](CCC(=O)O)C(=O)O)C(C)C` [2h] (H-RWVVRRDYRGDMGFDYWVWE-OH): on PD1:PDL1 interaction (setting [2]), the concentration for a half-maximal effect (EC50) was determined as 781 nM.

Consider `CC[C@H](C)[C@H](NC(=O)[C@H](Cc1ccc(O)cc1)NC(=O)CNC(=O)[C@H](Cc1ccc(O)cc1)NC(=O)[C@H](CC(N)=O)NC(=O)CNC(=O)[C@H](Cc1ccc(O)cc1)NC(=O)[C@H](C)NC(=O)[C@H](CCCNC(=N)N)NC(=O)[C@H](C)NC(=O)[C@@H](NC(=O)[C@H](Cc1c[nH]c2ccccc12)NC(=O)[C@@H](N)CCCNC(=N)N)C(C)C)C(=O)N[C@@H](CC(=O)O)C(=O)N[C@H](C(=O)N[C@@H](Cc1c[nH]c2ccccc12)C(=O)N[C@@H](Cc1cnc[nH]1)C(=O)N[C@@H](Cc1c[nH]c2ccccc12)C(=O)N[C@@H](CCC(=O)O)C(=O)O)C(C)C` [2r] (H-RWVARAYGNYGYIDVWHWE-OH), for which the concentration giving a half-maximal response (EC50) at PD1:PDL1 interaction (setting [2]) came out at 170 nM. Regarding “RWVA-RGGGGKKGGFD-YWVWE [2a, bulged (B) β-hairpin model scaffold]”, the ΔGF0 in series [1] (CD-melt at 228±2 nm, individual two-state Gibbs-Helmholtz fit (Origin 9.0), 0-95 °C, phosphate buffer 15 mM pH 6.5 ± MeOH) was -0.90 ± 0.006 kcal/mol. Also, the Tm in series [1] (Table S5, individual fit, 228±2 nm) amounted to 44.8 oC. Besides, the “Hairpin %-fold 291K” value in series [1] (Table S5, individual fit, 291 K) was 87 ± 1%. In addition, the “Hairpin %-fold 310K” value in series [1] (Table S5, individual fit, 310 K) is given as 66 ± 1%. Besides, in series [1] (as E16), the “-TΔSF0” value came to 9.87 ± 0.1 kcal/mol, the ΔCpF0 is on record as -372 ± 10 cal.deg-1.mol-1 and the ΔHF0 was -10.8 ± 0.1 kcal/mol. In series [1] (calculated from CD-melts), the “melting temperature (TM) upshift vs regular hairpin 1a” value is “about 10 °C”. In addition, in series [1] (setting [3]), the “DHm, fitted value from OriginPro” value is -18.1854 kcal/mol and the “Tm, fitted value from OriginPro” value came out at 317.92 K.

Turning to `C=CC(=O)NC[C@H](NC(=O)CNC(=O)[C@H](CC(=O)O)NC(=O)[C@@H](NC(=O)[C@H](CC(N)=O)NC(=O)[C@H](CCSC)NC(=O)CNC(=O)[C@H](CCC(=O)O)NC(=O)[C@H](CCCNC(=N)N)NC(=O)[C@H](C)NC(=O)[C@@H](NC(=O)[C@H](Cc1c[nH]c2ccccc12)NC(=O)[C@@H](N)CCCNC(=N)N)C(C)C)[C@@H](C)O)C(=O)N[C@@H](Cc1ccccc1)C(=O)N[C@@H](CC(N)=O)C(=O)N[C@@H](Cc1ccc(O)cc1)C(=O)N[C@@H](Cc1c[nH]c2ccccc12)C(=O)N[C@H](C(=O)N[C@@H](Cc1c[nH]c2ccccc12)C(=O)N[C@@H](CCC(=O)O)C(=O)O)C(C)C` [2pb] (H-RWVAREGMNTDG[Dap](Acryloyl)FNYWVWE-OH), the half-maximal effective concentration (EC50) on PD1:PDL1 interaction (setting [2]) came to 3040 nM.

For the compound “RWCAR-RDYRFDMGFD-YWGWE [Native, peptide 'Native', no fold by CD]”, the “fold by CD signature (in words)” value in series [1] (no hairpin exciton, no fit possible) is recorded as “No fold”. For `C=CC(=O)NCC[C@H](NC(=O)CNC(=O)[C@H](CC(=O)O)NC(=O)[C@@H](NC(=O)[C@H](CC(N)=O)NC(=O)[C@H](CCSC)NC(=O)CNC(=O)[C@H](CCC(=O)O)NC(=O)[C@H](CCCNC(=N)N)NC(=O)[C@H](C)NC(=O)[C@@H](NC(=O)[C@H](Cc1c[nH]c2ccccc12)NC(=O)[C@@H](N)CCCNC(=N)N)C(C)C)[C@@H](C)O)C(=O)N[C@@H](Cc1ccccc1)C(=O)N[C@@H](CC(N)=O)C(=O)N[C@@H](Cc1ccc(O)cc1)C(=O)N[C@@H](Cc1c[nH]c2ccccc12)C(=O)N[C@H](C(=O)N[C@@H](Cc1c[nH]c2ccccc12)C(=O)N[C@@H](CCC(=O)O)C(=O)O)C(C)C` [2pa] (H-RWVAREGMNTDG[Dab](Acryloyl)FNYWVWE-OH), at PD1:PDL1 interaction (setting [2]), the EC50 was 950 nM. As to `C=CC(=O)NC[C@H](NC(=O)[C@H](CC(=O)O)NC(=O)[C@H](Cc1ccccc1)NC(=O)[C@H](CCCNC(=N)N)NC(=O)[C@H](Cc1ccc(O)cc1)NC(=O)[C@H](CC(=O)O)NC(=O)[C@H](CCCNC(=N)N)NC(=O)[C@H](CCCNC(=N)N)NC(=O)[C@H](C)NC(=O)[C@@H](NC(=O)[C@H](Cc1c[nH]c2ccccc12)NC(=O)[C@@H](N)CCCNC(=N)N)C(C)C)C(=O)NCC(=O)N[C@@H](Cc1ccccc1)C(=O)N[C@@H](CC(=O)O)C(=O)N[C@@H](Cc1ccc(O)cc1)C(=O)N[C@@H](Cc1c[nH]c2ccccc12)C(=O)N[C@H](C(=O)N[C@@H](Cc1c[nH]c2ccccc12)C(=O)N[C@@H](CCC(=O)O)C(=O)O)C(C)C` [2cb] (H-RWVARRDYRFD[Dap](Acryloyl)GFDYWVWE-OH), on PD1:PDL1 interaction (setting [2]), the EC50 is 3980 nM.

For `CC[C@H](C)[C@H](NC(=O)[C@H](Cc1ccc(O)cc1)NC(=O)[C@H](Cc1c[nH]c2ccccc12)NC(=O)[C@H](Cc1ccc(O)cc1)NC(=O)[C@H](CC(N)=O)NC(=O)CNC(=O)[C@H](Cc1ccc(O)cc1)NC(=O)[C@H](C)NC(=O)[C@H](CCCNC(=N)N)NC(=O)[C@H](C)NC(=O)[C@@H](NC(=O)[C@H](Cc1c[nH]c2ccccc12)NC(=O)[C@@H](N)CCCNC(=N)N)C(C)C)C(=O)N[C@@H](CC(=O)O)C(=O)N[C@H](C(=O)N[C@@H](Cc1c[nH]c2ccccc12)C(=O)N[C@@H](Cc1cnc[nH]1)C(=O)N[C@@H](Cc1c[nH]c2ccccc12)C(=O)N[C@@H](CCC(=O)O)C(=O)O)C(C)C` [2q] (H-RWVARAYGNYWYIDVWHWE-OH), the EC50 at PD1:PDL1 interaction (setting [2]) is 230 nM.

Turning to `CSCC[C@H](NC(=O)[C@H](CC(=O)O)NC(=O)CNC(=O)[C@H](CCCNC(=N)N)NC(=O)[C@H](Cc1ccc(O)cc1)NC(=O)[C@H](CC(=O)O)NC(=O)[C@H](CCCNC(=N)N)NC(=O)[C@H](CCCNC(=N)N)NC(=O)[C@H](C)NC(=O)[C@@H](NC(=O)[C@H](Cc1c[nH]c2ccccc12)NC(=O)[C@@H](N)CCCNC(=N)N)C(C)C)C(=O)NCC(=O)N[C@@H](Cc1ccccc1)C(=O)N[C@@H](CC(=O)O)C(=O)N[C@@H](Cc1ccc(O)cc1)C(=O)N[C@@H](Cc1c[nH]c2ccccc12)C(=O)N[C@@H](Cc1cnc[nH]1)C(=O)N[C@@H](Cc1c[nH]c2ccccc12)C(=O)N[C@@H](CCC(=O)O)C(=O)O` [2d] (H-RWVARRDYRGDMGFDYWHWE-OH), the EC50 on PD1:PDL1 interaction (setting [2]) was 5650 nM; on PD1:PDL1 interaction ([PD1•PDL1] blocking EC50, Fig. 3B, cut-off bars of congeneric pairs (Phe/Trp vs Gly), n = 3), over 5000 nM. As to `CSCC[C@H](NC(=O)[C@H](CC(=O)O)NC(=O)[C@H](Cc1ccccc1)NC(=O)[C@H](CCCNC(=N)N)NC(=O)[C@H](Cc1ccc(O)cc1)NC(=O)[C@H](CC(=O)O)NC(=O)[C@H](CCCNC(=N)N)NC(=O)[C@H](CCCNC(=N)N)NC(=O)[C@@H](NC(=O)[C@@H](NC(=O)[C@H](Cc1c[nH]c2ccccc12)NC(=O)[C@@H](N)CCCNC(=N)N)C(C)C)C(C)C)C(=O)NCC(=O)N[C@@H](Cc1ccccc1)C(=O)N[C@@H](CC(=O)O)C(=O)N[C@@H](Cc1ccc(O)cc1)C(=O)N[C@@H](Cc1c[nH]c2ccccc12)C(=O)N[C@H](C(=O)N[C@@H](Cc1c[nH]c2ccccc12)C(=O)N[C@@H](CCC(=O)O)C(=O)O)C(C)C` [2i] (H-RWVVRRDYRFDMGFDYWVWE-OH), at PD1:PDL1 interaction (setting [2]), the EC50 turned out to be 70 nM.

As a reminder, the EC50 is the concentration needed to bring the measured effect to its halfway point.
